Reference: patent US12247045B2, “MAP4K4 inhibitors” (Imperial College Innovations Limited, priority 2018, dated 2025)

What follows are molecules tested against T1, human MAP4K4 kinase domain (Homo sapiens, UniProt O95819) (assay: MAP4K4 kinase activity, CisBio HTRF Transcreener ADP assay). Details: IC50 category; ATP at Km (10 μM), 0.5 nM kinase domain, 2 h; read-out: MAP4K4.
T1 construct: 0.5 nM human MAP4K4 kinase domain (Invitrogen); purchased Invitrogen
Format: biochemical
Description: Compounds of the present invention were screened for their inhibitory activity against MAP4K4, versus selected off-target hits found with early members of this chemical series. MAP4K4 kinase activity was monitored using the CisBio HTRF Transcreener ADP assay, a competitive immunoassay with a reproducible Z′>0.6. In the detection step, endogenous ADP and d2-labeled ADP compete for binding an anti-ADP monoclonal antibody labelled with Eu^3+ cryptate. A ratiometric fluorescent read-out is used at 665 and 620 nm. Reactions were performed in the presence of 1% DMSO with ATP added at Km (10 μM), 0.5 nM human MAP4K4 kinase domain (Invitrogen), 1 μM biotin-myelin basic protein as substrate (Invitrogen), and extension of reaction time to 2 h. Assays were run in Greiner low volume plates with a final reaction volume of 10 μl. The MAP4K4 inhibition data are provided in Table 41 below for selected compounds of the present invention. The data has been categorised based on the IC50 value of the compound as “A”, “B” or “C”. IC50: A≤100 nM; 100 nM<B≤1 μM; 1 μM<C; nd=not determined.

T1 sequence (O95819 25-289 limits assumed): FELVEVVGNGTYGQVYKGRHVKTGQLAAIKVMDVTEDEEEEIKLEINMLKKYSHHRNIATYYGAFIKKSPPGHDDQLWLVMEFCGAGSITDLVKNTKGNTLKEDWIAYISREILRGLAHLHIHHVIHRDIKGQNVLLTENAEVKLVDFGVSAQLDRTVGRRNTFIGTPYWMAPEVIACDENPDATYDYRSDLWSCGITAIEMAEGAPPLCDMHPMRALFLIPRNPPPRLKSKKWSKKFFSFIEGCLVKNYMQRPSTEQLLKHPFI

IC50 | Compound
> 1000 nM | O=c1[nH]cnc2c(-c3cncnc3)cn(-c3ccccc3)c12 [Ex-115]
100 to 1000 nM | O=c1[nH]cnc2c(-c3ccnnc3)cn(-c3ccccc3)c12 [Ex-116]
100 to 1000 nM | O=c1[nH]cnc2c(-c3ccc4[nH]cnc4c3)cn(-c3ccccc3)c12 [Ex-118]
100 to 1000 nM | O=c1[nH]cnc2c(-c3ccncc3)cn(-c3ccccc3)c12 [Ex-119, 5-Phenyl-7-pyridin-4-yl-3,5-dihydro-pyrrolo[3,2-d]pyrimidin-4-one]
100 to 1000 nM | Cn1cc(-c2cn(-c3ccccc3)c3c(=O)[nH]cnc23)cn1 [Ex-120]
> 1000 nM | O=c1[nH]cnc2c(-c3ccncc3F)cn(-c3ccccc3)c12 [Ex-121]
100 to 1000 nM | O=c1[nH]cnc2c(-c3cccnc3)cn(-c3ccccc3)c12 [Ex-124]
100 to 1000 nM | COc1cc(-c2cn(-c3ccccc3)c3c(=O)[nH]cnc23)ccn1 [Ex-127]
100 to 1000 nM | O=c1cc(-c2cn(-c3ccccc3)c3c(=O)[nH]cnc23)cc[nH]1 [Ex-128]
100 to 1000 nM | Cc1cc(-c2cn(-c3ccccc3)c3c(=O)[nH]cnc23)ccn1 [Ex-130]
> 1000 nM | Cc1ccc(-c2cn(-c3ccccc3)c3c(=O)[nH]cnc23)cn1 [Ex-131]
100 to 1000 nM | COc1ccc(-c2cn(-c3ccccc3)c3c(=O)[nH]cnc23)cn1 [Ex-132]
> 1000 nM | CNc1ccc(-c2cn(-c3ccccc3)c3c(=O)[nH]cnc23)cn1 [Ex-134]
≤ 100 nM | Nc1ccc(-c2cn(-c3ccccc3)c3c(=O)[nH]cnc23)cn1 [Ex-138, 7-(6-aminopyridin-3-yl)-5-phenyl-3,5-dihydro-4H-pyrrolo[3,2-d]pyrimidin-4-one]
100 to 1000 nM | O=c1[nH]cnc2c(-c3ccc4cn[nH]c4c3)cn(-c3ccccc3)c12 [Ex-139, 7-(1H-Indazol-6-yl)-5-phenyl-3,5-dihydro-pyrrolo[3,2-d]pyrimidin-4-one]

Further lines, the molecule ahead of its results:

Compound | IC50
COc1cc(-n2cc(-c3ccc(OCCC(C)(C)O)cc3)c3c(=O)[nH]cnc32)ccn1 [Ex-83] | 100 to 1000 nM
CC(C)(O)CCOc1ccc(-c2cn(-c3cncc(F)c3)c3nc[nH]c(=O)c23)cc1 [Ex-84] | 100 to 1000 nM
COCCOc1ccc(-c2cn(-c3cncc(F)c3)c3nc[nH]c(=O)c23)cc1 [Ex-85] | ≤ 100 nM
COc1ccc(-n2cc(-c3ccc(OCCC(C)(C)O)cc3)c3c(=O)[nH]cnc32)cn1 [Ex-86] | ≤ 100 nM
CC(C)(O)CCOc1ccc(-c2cn(-c3cccnc3)c3nc[nH]c(=O)c23)cc1C#N [Ex-87] | ≤ 100 nM
O=c1[nH]cnc2c1c(-c1ccc(OCCC3(O)COC3)cc1)cn2-c1cccnc1 [Ex-91] | ≤ 100 nM
CC(C)(CO)COc1ccc(-c2cn(-c3cccnc3)c3nc[nH]c(=O)c23)cc1 [Ex-92] | ≤ 100 nM
CC(C)(O)CCNc1ccc(-c2cn(-c3ccccc3)c3nc[nH]c(=O)c23)cn1 [Ex-94, 5-[6-[(3-hydroxy-3-methyl-butyl)amino]-3-pyridyl]-7-phenyl-3H-pyrrolo[2,3-d]pyrimidin-4-one] | ≤ 100 nM
CN(CCC(C)(C)O)c1ccc(-c2cn(-c3ccccc3)c3nc[nH]c(=O)c23)cn1 [Ex-95] | ≤ 100 nM
CC(C)(O)CCOc1ccc(-c2cn(-c3ccc(N)nc3)c3nc[nH]c(=O)c23)cc1 [Ex-96, 7-(6-aminopyridin-3-yl)-5-(4-(3-hydroxy-3-methylbutoxy)phenyl)-3,7-dihydro-4H-pyrrolo[2,3-d]pyrimidin-4-one] | ≤ 100 nM
CC(C)(O)COc1ccc(-c2cn(-c3cc[n+]([O-])cc3)c3nc[nH]c(=O)c23)cc1 [Ex-98] | 100 to 1000 nM
CC(C)(O)CCOc1ccc(-c2cn(-c3cccnc3)c3ncn(COP(=O)(O)O)c(=O)c23)cc1 [Ex-102, (5-(4-(3-hydroxy-3-methylbutoxy)phenyl)-4-oxo-7-(pyridin-3-yl)-4,7-dihydro-3H-pyrrolo[2,3-d]pyrimidin-3-yl)methyl dihydrogen phosphate] | > 1000 nM
COCCOc1ccc(-c2cn(-c3cccnc3)c3ncn(COP(=O)(O)O)c(=O)c23)cc1 [Ex-103] | > 1000 nM
COc1ccc(-c2cn(-c3ccccc3)c3nc[nH]c(=O)c23)nn1 [Ex-104, 5-(6-Methoxy-pyridazin-3-yl)-7-phenyl-3,7-dihydro-pyrrolo[2,3-d]pyrimidin-4-one] | > 1000 nM
COc1ccc(-c2cn(-c3ccccc3)c3nc[nH]c(=O)c23)nc1 [Ex-105] | 100 to 1000 nM
O=c1[nH]cnc2c1c(-c1ccccn1)cn2-c1ccccc1 [Ex-106] | > 1000 nM
COc1cnc(-c2cn(-c3ccccc3)c3nc[nH]c(=O)c23)cn1 [Ex-107] | 100 to 1000 nM

Compound | IC50
O=c1[nH]cnc2c1c(-c1cnn(C3CNC3)c1)cn2-c1ccccc1 [Ex-108, 5-(1-Azetidin-3-yl-1H-pyrazol-4-yl)-7-phenyl-3,7-dihydro-pyrrolo[2,3-d]pyrimidin-4-one] | 100 to 1000 nM
CNCCn1cc(-c2cn(-c3ccccc3)c3nc[nH]c(=O)c23)cn1 [Ex-109] | 100 to 1000 nM
CC(C)(N)COc1ccc(-c2cn(-c3cccnc3)c3nc[nH]c(=O)c23)cc1 [Ex-110] | 100 to 1000 nM
CC(C)(N)CCOc1ccc(-c2cn(-c3cccnc3)c3nc[nH]c(=O)c23)cc1 [Ex-111] | 100 to 1000 nM
O=c1[nH]cnc2c1c(-c1cn[nH]c1)cn2-c1ccccc1 [Ex-112, 7-Phenyl-5-(1H-pyrazol-4-yl)-3,7-dihydro-pyrrolo[2,3-d]pyrimidin-4-one] | ≤ 100 nM
O=c1[nH]cnc2c1c(-c1cnn(CCCO)c1)cn2-c1ccccc1 [Ex-113, 5-[1-(3-Hydroxy-propyl)-1H-pyrazol-4-yl]-7-phenyl-3,7-dihydro-pyrrolo[2,3-d]pyrimidin-4-one] | ≤ 100 nM
CN(C)CCCOc1ccc(-c2cn(-c3ccccc3)c3c(=O)[nH]cnc23)cn1 [Ex-114, 7-[6-(3-Dimethylamino-propoxy)-pyridin-3-yl]-5-phenyl-3,5-dihydro-pyrrolo[3,2-d]pyrimidin-4-one] | 100 to 1000 nM
O=c1[nH]cnc2c(-c3cccc4cn[nH]c34)cn(-c3ccccc3)c12 [Ex-117] | 100 to 1000 nM
Cn1ccc(-c2cn(-c3ccccc3)c3c(=O)[nH]cnc23)n1 [Ex-122] | > 1000 nM
O=c1[nH]cnc2c(-c3cnn(CCO)c3)cn(-c3ccccc3)c12 [Ex-123] | 100 to 1000 nM
CC(C)(O)CCOc1ccc(-n2cc(-c3cccnc3)c3nc[nH]c(=O)c32)cc1 [Ex-125, 5-(4-(3-hydroxy-3-methylbutoxy)phenyl)-7-(pyridin-3-yl)-3,5-dihydro-4H-pyrrolo[3,2-d]pyrimidin-4-one] | ≤ 100 nM
Nc1ncccc1-c1cn(-c2ccccc2)c2c(=O)[nH]cnc12 [Ex-126] | > 1000 nM
Cn1cnc2cccc(-c3cn(-c4ccccc4)c4c(=O)[nH]cnc34)c21 [Ex-129] | > 1000 nM
O=c1[nH]cnc2c(-c3ccc(NC4CC4)nc3)cn(-c3ccccc3)c12 [Ex-135] | > 1000 nM
O=c1[nH]cnc2c(-c3ccc(OC4CC4)nc3)cn(-c3ccccc3)c12 [Ex-137, 7-(6-cyclopropoxypyridin-3-yl)-5-phenyl-3,5-dihydro-4H-pyrrolo[3,2-d]pyrimidin-4-one] | 100 to 1000 nM
COCCOc1ccc(-c2cn(-c3cccnc3)c3cc[nH]c(=O)c23)cc1 [Ex-140, 3-[4-(2-Methoxy-ethoxy)-phenyl]-1-pyridin-3-yl-1,5-dihydro-pyrrolo[3,2-c]pyridin-4-one] | ≤ 100 nM
